Source: patent US7141676B1, “Water soluble multi-biotin-containing compounds” (University of Washington, priority 1996, dated 2006)

Tests used:
streptavidin = biological target: T1, streptavidin (Streptomyces avidinii, UniProt P22629); assay: Streptavidin cross-linking with biotin compounds on streptavidin coated polystyrene plate using 125I labeled streptavidin (Example 7); format: binding; conditions: 100 pmol biotin compound, 25 pmol 125I streptavidin per well, up to 4 alternating additions
T1 construct: purchased Pierce
Text: This experiment was designed to test streptavidin cross-linking with biotin monomer, biotin dimers comprising water-soluble linkers, and biotin moiety trimers comprising water-soluble linkers. Each of the biotin dimers and trimers used experimentally was water-soluble. […] The biotin dimers used herein are structures 28, 29, and 30. The trimers used herein are structures 23 (page 26), 24 (page 26), and 31. The biotin monomer used herein is the N-[13-(p-iodobenzamido)4,7,10-trioxatridacanyl]biotinamide.
A Reacti-Bind Streptavidin Coated Polystyrene Strip Place (Pierce) was washed with 100 mM PBS prior to use. To lane one (12-wells) was added 100 μL PBS. To lanes 2–7 were added 100 pmol of biotin dimer or biotin trimer to be tested in 100 μL PBS. Lane 8 was treated in the same manner with 100 pmol of biotin monomer. The plate then was incubated at 37° C. with shaking for 10 minutes. All the wells then were emptied and rinsed with 100 μL PBS. The PBS was removed and 25 pmol of ^125I labeled streptavidin (specific activity of 1 μCi/ug) in 100 μL PBS was added to each well. […]
The first 9 wells in each lane were then filled with 100 μL PBS and the remaining 3 wells in each lane were filled with 100 μL of their respective dimer or trimer. […] The amount of activity remaining in each well was determined as a percentage of the highest initial streptavidin binding.

[1] = neutral pH and ambient temperature; cited from earlier work
[2] = Water solubility (dissolve in water, stand about 24 hours, centrifuge, HPLC of aqueous layer); format: physicochemical; conditions: pH 7, water, thermodynamic from solid, neutral pH and ambient temperature
Text: The solubility of biotin moieties in aqueous media is enhanced according to the present invention by attaching a water-soluble linker moiety, typically through the carboxylate group of the biotin. Water-soluble linker moieties, L, according to the present invention, compromise any linker moiety that, when conjugated or coupled (e.g., covalently bonded) to a biotin moiety and the cross-linker, C, increases the water solubility of the biotin-containing compound. […] Dissolving the compound in water, stirring the solution, and allowing the solution to stand at room temperature for about 24 hours determines solubility. The solution then is centrifuged and the resultant aqueous layer analyzed using high performance liquid chromatography (“HPLC”). The HPLC analysis is conducted with a gradient using acetonitrile or methanol and water as the solvent mixture on a reversed-phase column.

Compound	solubility [2] [µg/mL]	also measured
O=C(CCCC[C@@H]1SC[C@@H]2NC(=O)N[C@@H]21)NCCCOCCOCCOCCCNC(=O)c1ccc(I)cc1 [biotin monomer, N-[13-(p-iodobenzamido)4,7,10-trioxatridacanyl]biotinamide]	–	streptavidin binding as a function of sequential biotin compound additions (FIG. 1) (streptavidin): Neither the biotin monomer nor any of the biotin dimers tested demonstrated appreciable increases in streptavidin binding
O=C(O)CCCC[C@@H]1SC[C@@H]2NC(=O)N[C@@H]21 [biotin]	–	solubility in water [1]: approximately 0.2 mg/mL
O=C(CCCCC1SCC2NC(=O)NC21)NCCCOCCOCCOCCCNC(=O)c1cc(C(=O)NCCCOCCOCCOCCCNC(=O)CCCCC2SCC3NC(=O)NC32)cc(C(=O)NCCCOCCOCCOCCCNC(=O)CCCCC2SCC3NC(=O)NC32)c1 (centres unmarked) [structure 23]	> 200	–
O=C(CCCCC1SCC2NC(=O)NC21)NCCCOCCOCCOCCNC(=O)c1cc(C(=O)NCCOCCOCCNC(=O)CCCCC2SCC3NC(=O)NC32)cc(C(=O)NCCOCCOCCNC(=O)CCCCC2SCC3NC(=O)NC32)c1 (centres unmarked) [structure 24]	> 200	–

Further lines, with some results ahead:

solubility [2] [µg/mL]	Compound	also measured
> 200	O=C(CCCCC1SCC2NC(=O)NC21)NCCOCCONC(=O)CCCCC1SCC2NC(=O)NC21 (centres unmarked) [structure 28]	–
> 200	O=C(CCCCC1SCC2NC(=O)NC21)NCCCOCCOCCOCCCNC(=O)CCCCC1SCC2NC(=O)NC21 (centres unmarked) [structure 29]	–
> 200	CC(CC(=O)NCCCOCCOCCOCCCNC(=O)CC(C)NC(=O)CCCCC1SCC2NC(=O)NC21)NC(=O)CCCCC1SCC2NC(=O)NC21 (centres unmarked) [structure 30]	–
> 200	CC(CC(=O)NCCCOCCOCCOCCCNC(=O)c1cc(C(=O)NCCCOCCOCCOCCCNC(=O)CC(C)NC(=O)CCCCC2SCC3NC(=O)NC32)cc(C(=O)NCCCOCCOCCOCCCNC(=O)CC(C)NC(=O)CCCCC2SCC3NC(=O)NC32)c1)NC(=O)CCCCC1SCC2NC(=O)NC21 (centres unmarked) [structure 31]	–
